Source: patent US12686690B2, “Macrocyclic urea orexin receptor agonists” (Merck Sharp & Dohme LLC, priority 2020, dated 2026)

Biological target: T1, hOX2R (Homo sapiens, UniProt O43614)
T1 construct: expressed in transfected cells; host or cells: CHO cells (G418 selection)
T1 sequence (O43614 1-444): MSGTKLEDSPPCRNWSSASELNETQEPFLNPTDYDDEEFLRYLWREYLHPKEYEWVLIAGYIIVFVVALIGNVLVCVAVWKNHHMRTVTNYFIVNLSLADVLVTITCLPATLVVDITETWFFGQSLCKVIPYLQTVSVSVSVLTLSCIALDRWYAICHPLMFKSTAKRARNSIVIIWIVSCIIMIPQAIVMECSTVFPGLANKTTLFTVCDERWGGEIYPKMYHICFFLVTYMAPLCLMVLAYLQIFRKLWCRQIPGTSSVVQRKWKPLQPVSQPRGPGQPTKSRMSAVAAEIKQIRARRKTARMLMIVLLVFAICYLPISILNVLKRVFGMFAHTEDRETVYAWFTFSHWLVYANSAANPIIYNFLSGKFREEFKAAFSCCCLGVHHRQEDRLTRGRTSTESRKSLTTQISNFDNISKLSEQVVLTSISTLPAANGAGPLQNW
Experiment: hOX2R IPone assay (orexin receptor agonism)
Format: cell-based
Details: IPone readout; for hOX2R_Ipone max %act: maximal activation; for EC50: orexin receptor agonist, read-out: hOX2R_IPone EC50

SMILES | hOX2R_Ipone max %act | EC50
CCN1C(=O)N[C@@H](CCC(C)(F)F)CCOCCOc2nc(nn3ccnc23)-c2cc(ncc2OC)[C@H]1C [Example 155, (3R,7S,E)-7-(3,3-difluorobutyl)-4-ethyl-25-methoxy-3-methyl-10,13-dioxa-4,6-diaza-1(2,4)-imidazo[2,1-f][1,2,4]triazina-2(4,2)-pyridinacyclotridecaphan-5-one] | 96.86% | 0.74 nM
CCN1C(=O)NC(CCC(F)(F)F)CCCCCOc2cc(n3nccc3c2)-c2ccnc(c2)C1C [Example 156, (3R,7R,E)-4-ethyl-3-methyl-7-(3,3,3-trifluoropropyl)-13-oxa-4,6-diaza-1(5,7)-pyrazolo[1,5-a]pyridina-2(4,2)-pyridinacyclotridecaphan-5-one] | 100.3% | 1.32 nM
CCN1C(=O)N[C@@H](CCC(F)(F)F)CCCCCOc2cc(cc3cccnc23)-c2cc(ncc2OC)[C@H]1C [Example 157, (3R,7R)-4-ethyl-25-methoxy-3-methyl-7-(3,3,3-trifluoropropyl)-13-oxa-4,6-diaza-1(6,8)-quinolina-2(4,2)-pyridinacyclotridecaphan-5-one] | 99.72% | 2.68 nM
C[C@@H]1c2cc(ccn2)-c2cn3ccnc3c(n2)OCCCCC[C@H](CCC(F)(F)F)NC(=O)N1C [Example 158, (3R,7R,E)-3,4-dimethyl-7-(3,3,3-trifluoropropyl)-13-oxa-4,6-diaza-1(6,8)-imidazo[1,2-a]pyrazina-2(4,2)-pyridinacyclotridecaphan-5-one] | 102% | 3.87 nM
CCN1C(=O)N[C@@H](CCC(F)(F)F)CCCCCOc2nc(cn3ccnc23)-c2cnnc(c2)[C@H]1C [Example 159, (3R,7R,E)-4-ethyl-3-methyl-7-(3,3,3-trifluoropropyl)-13-oxa-4,6-diaza-1(6,8)-imidazo[1,2-a]pyrazina-2(5,3)-pyridazinacyclotridecaphan-5-one] | 72.77% | 541 nM
CCN1C(=O)N[C@@H](CCC(C)(F)F)CCCCCOc2nc(c(C)n3ccnc23)-c2cc(ccn2)[C@H]1C [Example 160, (3R,7R,E)-7-(3,3-difluorobutyl)-4-ethyl-15,3-dimethyl-13-oxa-4,6-diaza-1(6,8)-imidazo[1,2-a]pyrazina-2(2,4)-pyridinacyclotridecaphan-5-one] | 101.4% | 0.77 nM
CCN1C(=O)N[C@@H](CCC(F)(F)F)CCOCCOc2nc(cn3ccnc23)-c2cc(ccn2)[C@H]1C [Example 161, (3R,7S,E)-4-ethyl-3-methyl-7-(3,3,3-trifluoropropyl)-10,13-dioxa-4,6-diaza-1(6,8)-imidazo[1,2-a]pyrazina-2(2,4)-pyridinacyclotridecaphan-5-one] | 101.7% | 2.66 nM
CCN1C(=O)N[C@@H](CCC(F)(F)F)CCCCCOc2nc(cc3cccnc23)-c2cc(ncc2OC)[C@H]1C [Example 162, (3R,7R)-4-ethyl-25-methoxy-3-methyl-7-(3,3,3-trifluoropropyl)-13-oxa-4,6-diaza-1(6,8)-naphthyridina-2(4,2)-pyridinacyclotridecaphan-5-one] | 104.8% | 5.9 nM
CCN1C(=O)N[C@@H](CCC(F)(F)F)C/C=C/CCOc2nc(cc3cccnc23)-c2cc(ncc2OC)[C@H]1C [Example 163, (3R,7S,E)-4-ethyl-25-methoxy-3-methyl-7-(3,3,3-trifluoropropyl)-13-oxa-4,6-diaza-1(6,8)-naphthyridina-2(4,2)-pyridinacyclotridecaphan-9-en-5-one] | 104.4% | 10.9 nM
CCN1C(=O)N[C@@H](CCC(F)(F)F)CCOCCOc2nc(cn3ncnc23)-c2cc(ncc2OC)[C@H]1C [Example 164, (3R,7S,E)-4-ethyl-25-methoxy-3-methyl-7-(3,3,3-trifluoropropyl)-10,13-dioxa-4,6-diaza-1(6,8)-[1,2,4]triazolo[1,5-a]pyrazina-2(4,2)-pyridinacyclotridecaphan-5-one] | 100.1% | 2.62 nM
CCN1C(=O)N[C@@H](CCC(F)(F)F)CCCCCOc2cc(nn3cc(C)nc23)-c2cc(ncc2OC)[C@H]1C [Example 166, (3R,7R,E)-4-ethyl-25-methoxy-12,3-dimethyl-7-(3,3,3-trifluoropropyl)-13-oxa-4,6-diaza-1(6,8)-imidazo[1,2-b]pyridazina-2(4,2)-pyridinacyclotridecaphan-5-one] | 102% | 15.1 nM
CCN1C(=O)N[C@@H](CCC(F)(F)F)CCCCCOc2cc(nn3c(C)cnc23)-c2cc(ncc2OC)[C@H]1C [Example 168, (3R,7R,E)-4-ethyl-25-methoxy-13,3-dimethyl-7-(3,3,3-trifluoropropyl)-13-oxa-4,6-diaza-1(6,8)-imidazo[1,2-b]pyridazina-2(4,2)-pyridinacyclotridecaphan-5-one] | 99.31% | 2.33 nM
CCN1C(=O)N[C@@H](CCC(C)(F)F)CCOCCOc2nc(cc3ncnn23)-c2cc(ncc2OC)[C@H]1C [Example 169, (3R,E)-7-(3,3-difluorobutyl)-4-ethyl-25-methoxy-3-methyl-10,13-dioxa-4,6-diaza-1(7,5)-[1,2,4]triazolo[1,5-c]pyrimidina-2(4,2)-pyridinacyclotridecaphan-5-one] | 111.8% | 3.36 nM
CCN1C(=O)N[C@@H](CCC(C)(F)F)CCOCCOc2nc(cc3c(C)cnn23)-c2cc(ncc2OC)[C@H]1C [Example 171, (3R,7S,E)-7-(3,3-difluorobutyl)-4-ethyl-25-methoxy-3-methyl-9,13-dioxa-4,6-diaza-1(5,7)-pyrazolo[1,5-c]pyrimidina-2(4,2)-pyridinacyclotridecaphan-5-one] | 107.9% | 1.45 nM
CCN1C(=O)NC(CCC(C)(F)F)CCCCCOc2nc(c(C)n3ncnc23)-c2cc(ncc2OC)C1C [Example 172, (3R,7R,E)-7-(3,3-difluorobutyl)-4-ethyl-25-methoxy-15,3-dimethyl-13-oxa-4,6-diaza-1(6,8)-[1,2,4]triazolo[1,5-a]pyrazina-2(4,2)-pyridinacyclotridecaphan-5-one] | 101% | 7.2 nM
CCN1C(=O)N[C@@H](CCC(F)(F)F)COCCCOc2nc(cn3cnnc23)-c2cc(ncc2OC)[C@H]1C [Example 173, (3R,7S,E)-4-ethyl-25-methoxy-3-methyl-7-(3,3,3trifluoropropyl)-9,13-dioxa-4,6-diaza-1(6,8)-[1,2,4]triazolo[4,3-a]pyrazina-2(4,2)-pyridinacyclotridecaphan-5-one] | 103.9% | 3.71 nM
CCN1C(=O)N[C@@H](CCC(F)(F)F)COCCCOc2nc(cn3ncnc23)-c2cc(ncc2OC)[C@H]1C [Example 174, (3R,7S,E)-4-ethyl-25-methoxy-3-methyl-7-(3,3,3-trifluoropropyl)-9,13-dioxa-4,6-diaza-1(6,8)-[1,2,4]triazolo[1,5-a]pyrazina-2(4,2)-pyridinacyclotridecaphan-5-one] | 103.8% | 3.08 nM
CCN1C(=O)N[C@@H](CCC(C)(F)F)CCCCCOc2nc(cc3ncnn23)-c2cc(ncc2OC)[C@H]1C [Example 176] | 99.6% | 2.97 nM
CCN1C(=O)NCCCCCCCOc2nc(cn3ccnc23)-c2cc(ncc2OC)[C@H]1C [Example 177, (R,E)-4-ethyl-25-methoxy-3-methyl-14-oxa-4,6-diaza-1(6,8)-imidazo[1,2-a]pyrazina-2(4,2)-pyridinacyclo-tetradecaphan-5-one] | 100.5% | 62.5 nM
CCN1C(=O)NCCCCOc2nc(cn3ccnc23)-c2cc(ncc2OC)[C@H]1C [Example 178, (R,E)-4-ethyl-25-methoxy-3-methyl-11-oxa-4,6-diaza-1(6,8)-imidazo[1,2-a]pyrazina-2(4,2)-pyridinacycloun-decaphan-5-one] | 88% | 325 nM
CCN1C(=O)N[C@@H](CCC(F)(F)F)CCOCCOc2nc(cn3ncnc23)-c2c(OC)cnc(c2F)C1C (stereo partly drawn) [Example 179, (7S,E)-4-ethyl-23-fluoro-25-methoxy-3-methyl-7-(3,3,3-trifluoropropyl)-10,13-dioxa-4,6-diaza-1(6,8)-[1,2, 4]triazolo[1,5-a]pyrazina-2(4,2)-pyridinacyclotridecaphan-5-one] | 100.8% | 8.24 nM
CCN1C(=O)N[C@@H](CCC(C)(F)F)CCOCCOc2nc(cn3ncnc23)-c2ccnc(c2)[C@H]1C [Example 180] | 100.8% | 4.15 nM
CCN1C(=O)NC(CCOC(F)F)CCCCCOc2nc(cn3ccnc23)-c2cc(ncc2OC)[C@H]1C (stereo partly drawn) [Example 182, (3R,E)-7-(2-(difluoromethoxy)ethyl)-4-ethyl-25-methoxy-3-methyl-13-oxa-4,6-diaza-1(6,8)-imidazo[1,2-a]pyrazina-2(4,2)-pyridinacyclotridecaphan-5-one] | 98.9% | 0.85 nM
CCN1C(=O)NC(CC2(F)CC2)CCCCCOc2nc(cn3ccnc23)-c2cc(ncc2OC)[C@H]1C (stereo partly drawn) [Example 183, (3R,E)-4-ethyl-7-((1-fluorocyclopropyl)methyl)-25-methoxy-3-methyl-13-oxa-4,6-diaza-1(6,8)-imidazo[1,2-a]pyrazina-2(4,2)-pyridinacyclotridecaphan-5-one] | 100.2% | 1 nM
